From the CheMixHub viscosity set

Assay: xn = mol fraction of the nth substance listed

CCCCCCCC/C=C\CCCCCCCC(=O)OCC + CCCCO
viscosity [mPa·s], 100 kPa
Settings	x1 = 0.1	x1 = 0.2	x1 = 0.3	x1 = 0.4	x1 = 0.5	x1 = 0.6	x1 = 0.7	x1 = 0.8	x1 = 0.9
293.15 K	3.187	3.558	3.946	4.315	4.68	5.024	5.358	5.682	6.011
298.15 K	2.818	3.143	3.481	3.808	4.131	4.437	4.732	5.013	5.31
303.15 K	2.491	2.782	3.08	3.371	3.649	3.918	4.175	4.419	4.678
308.15 K	2.217	2.48	2.746	3.002	3.25	3.486	3.713	3.931	4.16
313.15 K	1.983	2.223	2.46	2.683	2.897	3.103	3.3	3.49	3.691
318.15 K	1.776	1.998	2.214	2.421	2.62	2.81	2.991	3.165	3.35
323.15 K	1.6	1.806	2.002	2.192	2.371	2.543	2.707	2.865	3.032

CCCOCC(C)OCC(C)O (configuration not stated) + CCO
viscosity [mPa·s], 101.33 kPa
Settings	298.15 K	308.15 K	318.15 K
x1 = 0.05	1.27	1.046	0.872
x1 = 0.1	1.446	1.181	0.978
x1 = 0.15	1.621	1.315	1.081
x1 = 0.2	1.799	1.446	1.18
x1 = 0.25	1.994	1.572	1.278
x1 = 0.3	2.144	1.706	1.374
x1 = 0.3501	2.322	1.83	1.468
x1 = 0.4	2.485	1.944	1.55
x1 = 0.4501	2.643	2.055	1.631
x1 = 0.5	2.795	2.163	1.705
x1 = 0.55	2.942	2.27	1.777
x1 = 0.6	3.081	2.367	1.842
x1 = 0.6497	3.218	2.463	1.905
x1 = 0.6996	3.343	2.55	1.965
x1 = 0.7496	3.475	2.627	2.02
x1 = 0.8	3.593	2.702	2.081
x1 = 0.8499	3.704	2.764	2.131
x1 = 0.8999	3.807	2.839	2.177
x1 = 0.95	3.896	2.906	2.215

OCCC(O)CO (configuration not stated) + O
viscosity [mPa·s], 101 kPa
Settings	293.15 K	298.15 K	303.15 K	308.15 K	313.15 K	318.15 K	323.15 K
x1 = 0.005	1.089	0.984	0.889	0.798	0.7	0.656	0.595
x1 = 0.01	1.271	1.096	0.968	0.863	0.769	0.703	0.626
x1 = 0.015	1.46	1.193	1.067	0.942	0.853	0.77	0.678
x1 = 0.02	1.617	1.328	1.195	1.058	0.937	0.857	0.732

O=C(O)C1CCCCC1 + CCCCCCCCCCO
viscosity [mPa·s], 101 kPa
Settings	310 K	320 K
x2 = 0.0377	12.1	8.54
x2 = 0.0625	11.8	8.32
x2 = 0.1776	10.6	7.57
x2 = 0.2753	9.61	6.94
x2 = 0.4103	8.79	6.39
x2 = 0.4952	8.45	6.15
x2 = 0.5659	8.15	5.94
x2 = 0.6678	7.86	5.72
x2 = 0.7657	7.7	5.6
x2 = 0.8462	7.48	5.48
x2 = 0.9063	7.43	5.36
x2 = 0.9593	7.41	5.3
